Experimental data reported in patent US6593480B2 (Abbott Laboratories, priority 1999, dated 2003).

Target: T1, progesterone receptor (PR) (Homo sapiens, UniProt P06401)
T1 sequence (P06401 1-933): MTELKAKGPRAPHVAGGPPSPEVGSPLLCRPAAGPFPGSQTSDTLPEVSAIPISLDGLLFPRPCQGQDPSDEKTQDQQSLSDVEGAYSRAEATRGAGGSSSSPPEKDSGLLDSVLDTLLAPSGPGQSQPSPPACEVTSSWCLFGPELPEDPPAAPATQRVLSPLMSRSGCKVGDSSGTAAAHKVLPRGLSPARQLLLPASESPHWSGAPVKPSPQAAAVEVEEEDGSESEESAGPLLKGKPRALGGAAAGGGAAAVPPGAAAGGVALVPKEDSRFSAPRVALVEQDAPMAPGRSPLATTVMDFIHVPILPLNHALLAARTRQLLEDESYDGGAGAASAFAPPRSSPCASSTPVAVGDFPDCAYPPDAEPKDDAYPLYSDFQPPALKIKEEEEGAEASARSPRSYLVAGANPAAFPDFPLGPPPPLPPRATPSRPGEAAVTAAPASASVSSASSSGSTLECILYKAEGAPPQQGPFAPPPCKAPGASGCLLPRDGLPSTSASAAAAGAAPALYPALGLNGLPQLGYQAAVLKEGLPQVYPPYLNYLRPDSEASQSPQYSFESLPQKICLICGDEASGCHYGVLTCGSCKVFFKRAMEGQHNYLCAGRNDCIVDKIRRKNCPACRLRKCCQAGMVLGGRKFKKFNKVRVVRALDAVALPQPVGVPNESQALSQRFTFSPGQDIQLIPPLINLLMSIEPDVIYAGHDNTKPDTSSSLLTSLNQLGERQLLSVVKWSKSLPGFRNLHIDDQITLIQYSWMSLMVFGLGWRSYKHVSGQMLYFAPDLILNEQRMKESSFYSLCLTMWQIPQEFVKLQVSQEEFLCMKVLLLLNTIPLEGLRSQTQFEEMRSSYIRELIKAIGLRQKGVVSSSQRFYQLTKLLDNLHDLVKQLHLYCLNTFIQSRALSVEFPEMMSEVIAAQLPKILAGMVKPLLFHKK
Test: Radioligand binding assay with progesterone receptor cytosol (similar protocol)
Source text: Methods for Radioligand Binding Studies with Human Glucocorticoid and Progesterone Receptor Cytosol
A similar protocol was employed to measure affinity of the compounds of the present invention for progesterone receptor (PR).

IC50 | Structure (SMILES)
300 nM | COc1cccc2c1-c1ccc(NS(C)(=O)=O)cc1C(c1cccc(Br)c1)O2 (stereo not drawn) [Example 82, N-[6-(3-bromophenyl)-1-methoxy-6H-benzo[c]chromen-8-yl]methanesulfonamide]
> 1000 nM | COc1cccc2c1-c1ccc(NS(C)(=O)=O)cc1C(c1ccc(C#Cc3ccccc3)s1)O2 (stereo not drawn) [Example 93, N-{1-methoxy-6-[5-(phenylethynyl)-2-thienyl]-6H-benzo[c]chromen-8-yl}methanesulfonamide]
250 nM | COc1cccc2c1-c1ccc(NS(C)(=O)=O)cc1C(c1ccc(-c3ccccc3)s1)O2 (stereo not drawn) [Example 100, N-[1-methoxy-6-(5-phenyl-2-thienyl)-6H-benzo[c]chromen-8-yl]methanesulfonamide]
> 10000 nM | COc1cccc(-c2cccc(C3Oc4cccc(OC)c4-c4ccc(NS(C)(=O)=O)cc43)c2)c1 (stereo not drawn) [Example 124, N-[1-methoxy-6-(3′-methoxyl[1,1′-biphenyl]-3-yl)-6H-benzo[c]chromen-8-yl]methanesulfonamide]
> 10000 nM | COc1ccc(-c2cccc(C3Oc4cccc(OC)c4-c4ccc(NS(C)(=O)=O)cc43)c2)cc1 (stereo not drawn) [Example 125, N-[1-methoxy-6-(4′-methoxy[1,1′-biphenyl]-3-yl)-6H-benzo[c]chromen-8-yl]methanesulfonamide]
9360 nM | CNc1cccc(C2Oc3cccc(OC)c3-c3ccc(NS(C)(=O)=O)cc32)c1 (stereo not drawn) [Example 81, N-{1-methoxy-6-[3-(methylamino)phenyl]-6H-benzo[c]chromen-8-yl}methanesulfonamide]
680 nM | COc1ccc(Br)c2c1-c1ccc(NS(C)(=O)=O)cc1C(c1ccccc1)O2 (stereo not drawn) [Example 154, N-(4-bromo-1-methoxy-6-phenyl-6H-benzo[c]chromen-8-yl)methanesulfonamide]
170 nM | COc1cccc(C2Oc3cccc(OC(F)F)c3-c3ccc(NS(C)(=O)=O)cc32)c1 (stereo not drawn) [Example 108, N-[1-(difluoromethoxy)-6-(3-methoxyphenyl)-6H-benzo[c]chromen-8-yl]methanesulfonamide]
> 10000 nM | COc1cccc2c1-c1ccc(NS(C)(=O)=O)cc1C(c1cccc(-c3ccc(Cl)c(Cl)c3)c1)O2 (stereo not drawn) [Example 127, N-[6-(3′,4′-dichloro[1,1′-biphenyl]-3-yl)-1-methoxy-6H-benzo[c]chromen-8-yl]methanesulfonamide]
> 10000 nM | COc1cccc2c1-c1ccc(NS(C)(=O)=O)cc1C(c1cccc(-c3ccc(N(C)C)cc3)c1)O2 (stereo not drawn) [Example 133, N-{6-[4′-(dimethylamino)[1,1′-biphenyl]-3-yl]-1-methoxy-6H-benzo[c]chromen-8-yl}methanesulfonamide]
> 10000 nM | COc1cccc2c1-c1ccc(NS(=O)(=O)c3ccccc3F)cc1C(c1ccccc1)O2 (stereo not drawn) [Example 18]
3630 nM | COc1cccc2c1-c1ccc(NS(C)(=O)=O)cc1C(c1cccc(N(C)S(C)(=O)=O)c1)O2 (stereo not drawn) [Example 83, N-(1-methoxy-6-{3-[methyl(methylsulfonyl)amino]phenyl}-6H-benzo[c]chromen-8-yl)methanesulfonamide]
620 nM | C=CCN(C)c1cccc(C2Oc3cccc(OC)c3-c3ccc(NS(C)(=O)=O)cc32)c1 (stereo not drawn) [Example 80, N-(6-{3-[allyl(methyl)amino]phenyl}-1-methoxy-6H-benzo[c]chromen-8-yl)methanesulfonamide]
880 nM | COc1cccc2c1-c1ccc(NS(C)(=O)=O)cc1C(c1cccc(-c3ccc(O)cc3)c1)O2 (stereo not drawn) [Example 128, N-[6-(4′-hydroxy[1,1′-biphenyl]-3-yl)-1-methoxy-6H-benzo[c]chromen-8-yl]methanesulfonamide]
> 10000 nM | CS(=O)(=O)Nc1ccc2c(c1)C(c1cccc(CCCCc3ccccc3)c1)Oc1cccc(OC(F)F)c1-2 (stereo not drawn) [Example 136, N-{1-(difluoromethoxy)-6-[3-(4-phenylbutyl)phenyl]-6H-benzo[c]chromen-8-yl}methanesulfonamide]
≥ 10000 nM | COc1cccc2c1-c1ccc(NS(C)(=O)=O)cc1C(c1cccc(N(C)S(=O)(=O)c3ccc(Br)cc3)c1)O2 (stereo not drawn) [Example 152, 4-bromo-N-(3-{1-methoxy-8-[(methylsulfonyl)amino]-6H-benzo[c]chromen-6-yl}phenyl)-N-methylbenzenesulfonamide]
> 10000 nM | COc1cccc2c1-c1ccc(NS(C)(=O)=O)cc1C(c1cccc(-c3ccc(C)cc3)c1)O2 (stereo not drawn) [Example 123, N-[1-methoxy-6-(4′-methyl[1,1′-biphenyl]-3-yl)-6H-benzo[c]chromen-8-yl]methanesulfonamide]
390 nM | COc1ccc(-c2cccc(C3Oc4cccc(OC(F)F)c4-c4ccc(NS(C)(=O)=O)cc43)c2)cc1 (stereo not drawn) [Example 145, N-[1-(difluoromethoxy)-6-(4′-methoxy[1,1′-biphenyl]-3-yl)-6H-benzo[c]chromen-8-yl]methanesulfonamide]
530 nM | Cc1ccc(-c2cccc(C3Oc4cccc(OC(F)F)c4-c4ccc(NS(C)(=O)=O)cc43)c2)cc1 (stereo not drawn) [Example 147, N-[1-(difluoromethoxy)-6-(4′-methyl[1,1′-biphenyl]-3-yl)-6H-benzo[c]chromen-8-yl]methanesulfonamide]
> 1000 nM | COc1cccc2c1-c1ccc(NS(C)(=O)=O)cc1C(c1cccc(C#Cc3ccccc3)c1)O2 (stereo not drawn) [Example 91, N-{1-methoxy-6-[3-(phenylethynyl)phenyl]-6H-benzo[c]chromen-8-yl}methanesulfonamide]

The remaining lines, values behind:

Structure (SMILES) | IC50
CS(=O)(=O)Nc1ccc2c(c1)C(c1cccc(-c3ccc(Cl)cc3)c1)Oc1cccc(OC(F)F)c1-2 (stereo not drawn) [Example 143, N-[6-(4′-chloro[1,1′-biphenyl]-3-yl)-1-(difluoromethoxy)-6H-benzo[c]chromen-8-yl]methanesulfonamide] | 220 nM
CCCS(=O)(=O)N(C)c1cccc(C2Oc3cccc(OC)c3-c3ccc(NS(C)(=O)=O)cc32)c1 (stereo not drawn) [Example 132, N-(3-{1-methoxy-8-[(methylsulfonyl)amino]-6H-benzo[c]chromen-6-yl}phenyl)-N-methyl-1-propanesulfonamide] | > 10000 nM
CCOCCCc1cccc(C2Oc3cccc(OC(F)F)c3-c3ccc(NS(C)(=O)=O)cc32)c1 (stereo not drawn) [Example 120, N-{1-(difluoromethoxy)-6-[3-(3-ethoxypropyl)phenyl]-6H-benzo[c]chromen-8-yl}methanesulfonamide] | 500 nM
CS(=O)(=O)Nc1ccc2c(c1)C(c1cccc(Br)c1)Oc1cccc(OC(F)F)c1-2 (stereo not drawn) [Example 103, N-[6-(3-bromophenyl)-1-(difluoromethoxy)-6H-benzo[c]chromen-8-yl]methanesulfonamide] | 180 nM
CCOC(=O)c1cccc(C2Oc3cccc(OC(F)F)c3-c3ccc(NS(C)(=O)=O)cc32)c1 (stereo not drawn) [Example 114, ethyl 3-{1-(difluoromethoxy)-8-[(methylsulfonyl)amino]-6H-benzo[c]chromen-6-yl}benzoate] | 290 nM
C=CCOc1cccc(C2Oc3cccc(OC(F)F)c3-c3ccc(NS(C)(=O)=O)cc32)c1 (stereo not drawn) [Example 116, N-[6-[3-(allyloxy)phenyl]-1-(difluoromethoxy)-6H-benzo[c]chromen-8-yl]methanesulfonamide] | 1050 nM
COCC#Cc1ccc(C2Oc3cccc(OC)c3-c3ccc(NS(C)(=O)=O)cc32)s1 (stereo not drawn) [Example 92, N-{1-methoxy-6-[5-(3-methoxy-1-propynyl)-2-thienyl]-6H-benzo[c]chromen-8-yl}methanesulfonamide] | 51 nM
COc1cccc2c1-c1ccc(NS(C)(=O)=O)cc1C(c1cccc(N(C)S(=O)(=O)CCCCl)c1)O2 (stereo not drawn) [Example 130, 3-chloro-N-(3-{1-methoxy-8-[(methylsulfonyl)amino]-6H-benzo[c]chromen-6-yl}phenyl)-N-methyl-1-propanesulfonamide] | > 10000 nM
CS(=O)(=O)Nc1ccc2c(c1)C(c1ccc(Br)cc1)Oc1cccc(OC(F)F)c1-2 (stereo not drawn) [Example 109, N-[6-(4-bromophenyl)-1-(difluoromethoxy)-6H-benzo[c]chromen-8-yl]methanesulfonamide] | 250 nM
COc1cccc2c1-c1ccc(NS(C)(=O)=O)cc1C(c1cc(C)cc(C)c1)O2 (stereo not drawn) [Example 87, N-[6-(3,5-dimethylphenyl)-1-methoxy-6H-benzo[c]chromen-8-yl]methanesulfonamide] | 210 nM
COc1cccc2c1-c1ccc(NS(C)(=O)=O)cc1C(c1ccsc1)O2 (stereo not drawn) [Example 97, N-[1-methoxy-6-(3-thienyl)-6H-benzo[c]chromen-8-yl]methanesulfonamide] | 180 nM
CCCCC/C=C/C1Oc2cccc(OC)c2-c2ccc(NS(C)(=O)=O)cc21 (stereo not drawn) [Example 98, N-{6-[(1E)-1-heptenyl]-1-methoxy-6H-benzo[c]chromen-8-yl}methanesulfonamide] | 92 nM
COCCCc1cccc(C2Oc3cccc(OC(F)F)c3-c3ccc(NS(C)(=O)=O)cc32)c1 (stereo not drawn) [Example 117, N-{1-(difluoromethoxy)-6-[3-(3-methoxypropyl)phenyl]-6H-benzo[c]chromen-8-yl}methanesulfonamide] | 430 nM
